Reference: patent US20100267653A1, “USE OF COUMARIN DERIVATIVES IN ANTIFUNGAL THERAPY” (priority 2006, published 2010)
≈ marks a conversion by molar mass, not a printed value. Like-named read-outs stand apart in the source and are kept apart here.

Legend:
[1] = system: Trichophyton rubrum NCPF118; experiment: Antifungal activity, growth in RPMI 1640 microtitre plates (OD 530 nm); type: cell-based; details: for MIC: T. rubrum NCPF118, 30° C.
Method: Esculin, esculetin and a range of other coumarins and their glycosides were tested for their antifungal activity against Trichophyton rubrum, Trichophyton interdigitale and other fungi isolated from nails and skin.
Suspensions of fungal conidia and hyphal fragments for use as experimental inocula were prepared by adding 3 ml of demineralised water or 0.15% (w/v) NaCl solution to a slope culture which had been incubated at 30° C. for 7 to 10 days and probing the surface of the culture with a sterile plastic transfer pipette. […] The resulting suspension was filtered through a double layer of sterile surgical gauze; if necessary a further volume of up to 3 ml of water or 0.15% (w/v) NaCl was used to wash through any spores or small hyphal fragments held on the gauze. 100 μl of this suspension, adjusted to an optical density between 0.14 and 0.16 at 530 nm (corresponding to between 0.5 and 1.5×10^6 propagules/ml) was added to the wells in sterile 96-well microtitre plates to which 100 μl of 2× strength RPMI 1640 media (a chemically-defined nutrient medium widely used in tissue culture and antimicrobial resistance testing) had been added. Inocula prepared in this way were used in all of the experiments; additionally, for some experiments with esculin shown in FIG. 4, the results obtained with standard inocula prepared as described above (labelled “young inoculum” in FIG. 4), were compared with the results obtained in similar tests using inocula which had been cultured for up to 9 weeks (labelled “old inoculum” in FIG. 4). As appropriate, coumarins were pre-dissolved in 2× strength RPMI 1640 medium before addition to the plate. Experiments with the yeasts Candida albicans and Candida krusei were set up in the same way, but in these cases, filtration of the cell suspensions was not necessary.
(§1) Solubilisation of other compounds required the presence of DMSO. Esculetin, daphnetin, 4-(trifluoromethyl) coumarin, 4-(trifluoromethyl)-coumarin-7-0-glucose and cichoriin were dissolved in DMSO at 1000× final test concentration; when this solution was diluted to the concentration used in the experiments using 2× strength RPMI 1640 medium, the final concentration of DMSO was […] which alone had no effect on the fungi when tested in several experiments performed. Fraxetin required a final concentration of 0.2% DMSO, but this too had no effect on the growth of the fungi when tested in separate experiments.
A series of dilutions of the coumarin solutions was prepared on the plates by mixing known volumes of the coumarin stock solutions in the wells with fresh volumes of 2×RPMI 1640 medium. Each concentration of coumarin was studied in triplicate wells. For observations on Trichophyton rubrum NCPF118 and Trichophyton interdigitale NCPF335, obtained from the National Collection of Pathogenic Fungi (Bristol), the plates were incubated in a Bio-Tek Powerwave XS scanning plate reader at 30° C., and fungal growth within the plates was measured at intervals of 2 h for up to 72 h or 96 h as specified in the text by recording the absorbance (optical density) of the wells at 530 nm. Observations on Candida albicans and Candida krusei were made in the same way, but the incubation temperature was 37° C. and the incubation time was 48 h. For observations with clinical fungal isolates obtained from the collection of M. Monod (Lausanne, Switzerland), the procedure was as described above except that in response to the relatively slow growth of these isolates, incubations were performed in a static incubator at 30° C. and the plates were read manually in a Bio-Tek Powerwave XS scanning plate reader at intervals of 24 h for up to 168 h, being returned to the incubator after each reading. Malassezia furfur grows poorly in the system described above, so for this organism, a standard inoculum of M. furfur was mixed with an equal volume of a solution of esculetin and the mixture was plated onto Petri dishes containing Sabouraud's agar medium. […]

[2] = Solubility of coumarins in RPMI 1640 media and DMSO; type: physicochemical
Method: The solubility of the aglycones was compared to the respective glycoside in RPMI 1640 media and in DMSO.
as §1

Cc1cc(=O)oc2cc(O)c(O)cc12 [4 methyl esculetin]
MIC [1]: 1.0 mM (≈ 192 µg/mL)

O=c1cc(C(F)(F)F)c2ccc(O)cc2o1 [4-(trifluoromethyl)coumarin, 7-hydroxy-4-(trifluoromethyl)coumarin]
solubility (in words) [2]: only being soluble at low concentrations | DMSO Concentration ([2]; DMSO present for the stated solubility in RPMI 1640): 0.2 % v/v | solubility ([2]; RPMI 1640 medium with DMSO co-solvent, aqueous buffer, kinetic from dmso stock, pH = 7.0, in presence of the DMSO concentration of the same table line): 2000 µM | MIC ([1]; Trichophyton rubrum, read-out: MIC): 1 mM (≈ 230 µg/mL) | activity of halogenated coumarin aglycone versus T. rubrum NCPF118 ([1]; at concentrations of 1-2 mM, FIG. 6): significantly antifungal

O=c1cc(C(F)(F)F)c2ccc(OC3O[C@H](CO)[C@@H](O)[C@H](O)[C@H]3O)cc2o1 (stereo partly shown) [4-(trifluoromethyl)coumarin-7-glucoside]
DMSO Concentration ([2]; pH 7): 0 % v/v
